Assay results published in patent US10279190B2, “Treating disease with resonance generating electromagnetic fields” (Anapole Technologies Inc., priority 2016, dated 2019).
Marks after values point to notes of the source that are not given here.

How the values were obtained:
[1] = tested on: U-87 MG cells; conditions: 25 nM, 72 hours; "has been shown"; cited from earlier work
[2] = tested on: U-87 MG cells; assay: U-87 MG cell number (count & viability) after docetaxel treatment; format: cell-based; conditions: 25 nM docetaxel, 72 hours, vs vehicle control, not significant
Experimental: (§1) U-87 MG cells may be plated at a density of 8×10^5 cells/150-mm dish. 48 hours after plating, cells may be treated with vehicle control or 25 nM docetaxel for 72 hours. At the end of treatment, cells may be harvested by trypsinization, and an aliquot of live/unfixed cells may be used to determine cell number, PS externalization, and caspase-3/7 activity using a cell analyzer. Remaining cells may be fixed for cell cycle analysis using a cell analyzer and DNA fragmentation analysis by BD LSRII Flow Cytometry as described below.
(§2) U-87 MG cells harvested by trypsinization may be pooled with media plus washes and pelleted by centrifugation. The cells may be re-suspended in complete media diluted 1:10 with PBS (1% FBS/PBS). For determination of count and viability, an aliquot of the cell suspension may be diluted 1:10 with a count & viability reagent, which differentially stains viable and non-viable cells based on their permeability to two DNA binding dyes, and incubated for 5 minutes in the dark at room temperature according to manufacturer's protocol. For detection of phosphatidylserine (PS) externalization, an aliquot of cell suspension appropriately diluted in 1% FBS/PBS may be mixed 1:1 with an Annexin V & dead cell reagent and incubated for 20 minutes in the dark at room temperature according to manufacturer's protocol. […]

[3] = tested on: U-87 MG cells; assay: PS externalization (Annexin V staining) in U-87 MG cells; format: cell-based; conditions: 25 nM, 72 hours, vs vehicle control
Experimental: as §1, §2

[4] = tested on: U-87 MG cells; assay: DNA fragmentation of U-87 MG cells (APO-BRDU, flow cytometry); format: cell-based; conditions: 25 nM, 72 hour treatment; percentage of the cell population, mean±SD, n=2
Experimental: as §1
For analysis of DNA fragmentation, U-87 MG cells may be harvested by trypsinization, collected by centrifugation, fixed in 2% formaldehyde in PBS, and permeabilized in 70% EtOH at −20° C. DNA strand breaks in cells undergoing apoptosis may be indirectly labeled with bromodeoxyuridine by terminal transferase and detected by FITC-conjugated monoclonal antibody to bromodeoxyuridine using the APO-BRDU kit according to manufacturer's protocol. Cells may be counterstained with 5 μg/ml propidium iodide containing RNase A for detection of total DNA, and two-color analysis of DNA strand breaks and cell cycle may be achieved by flow cytometry. Flow cytometric analysis may be performed on a BD LSR II Flow Cytometer equipped with three excitation lasers (405-nm, 488-nm and 633-nm). For DNA fragmentation analysis, FITC and PI signals may be collected by 488-nm octagon detection array with no color compensation. 10,000 events gated on single cell populations may be collected and post-acquisition analysis may be performed using software FlowJo 7.6.5.
Table 6 is an analysis of DNA fragmentation of U-87 MG cells after 72 hour treatment with 25 nM docetaxel. DNA fragmentation may be determined by flow cytometry as described above.

[5] = tested on: U-87 MG cells; assay: Caspase-3/7 activation in U-87 MG cells; format: cell-based; conditions: 25 nM, 72 hours, vs vehicle control
Experimental: as §1
U-87 MG cells harvested by trypsinization may be pooled with media plus washes and pelleted by centrifugation. The cells may be re-suspended in complete media diluted 1:10 with PBS (1% FBS/PBS). […]
Cleavage by active caspase-3/7 releases the dye within the cell and results in translocation to the nucleus, binding to DNA and high fluorescence. […] A cell cycle reagent may be a proprietary formulation containing the DNA intercalating dye propidium iodide and RNAse A. The multiparametric fluorescent detection of individual cells may be performed by a cell analyzer, a microcapillary flow cytometer equipped with a 532-nm laser, a forward scatter and two fluorescence (YLW 576/26, RED 680/30) detectors. […]

[6] = tested on: U-87 MG cells; assay: Cell cycle analysis of U-87 MG cells (cell cycle reagent, propidium iodide); format: cell-based; conditions: 25 nM, 72 hour treatment; proportion of cells in cell cycle phase, mean±SD, n=3
Experimental: as §1
Cleavage by active caspase-3/7 releases the dye within the cell and results in translocation to the nucleus, binding to DNA and high fluorescence. For cell cycle analysis, an ethanol-fixed cell suspension may be obtained by taking an aliquot of cell suspension, pelleting by centrifugation, resuspending in PBS, and fixing in 70% ethanol at −20° C. Fixed cells may be washed in PBS/0.2% BSA, pelleted by centrifugation, resuspended in a cell cycle reagent, and incubated for 30 minutes in the dark at room temperature according to manufacturer's protocol. A cell cycle reagent may be a proprietary formulation containing the DNA intercalating dye propidium iodide and RNAse A. The multiparametric fluorescent detection of individual cells may be performed by a cell analyzer, a microcapillary flow cytometer equipped with a 532-nm laser, a forward scatter and two fluorescence (YLW 576/26, RED 680/30) detectors. Data acquisition and analysis of count & viability, Annexin V & dead cell, and caspase-3/7 assays may be done by analysis software. Post-acquisition analysis of cell cycle data may be performed using software (e.g., FlowJo 7.6.5).
Table 5 is a cell cycle analysis of U-87 MG cells after 72 hour treatment with 25 nM docetaxel. At the end of 72 hour treatment, cells may be harvested and cell cycle may be determined by incubating the cells in a cell cycle reagent and following the manufacturer's protocol. Data represent the mean±SD of three independent biological replicates (*p<0.1).

For CC(=O)O[C@@]12CO[C@@H]1C[C@H](O)[C@@]1(C)C(=O)[C@H](O)C3=C(C)[C@@H](OC(=O)[C@H](O)[C@@H](NC(=O)OC(C)(C)C)c4ccccc4)C[C@@](O)([C@@H](OC(=O)c4ccccc4)[C@H]21)C3(C)C [Docetaxel, docetaxel], the “arresting cell growth in U-87 MG cells, compared with temozolomide” value [1] is given as “as effective as temozolomide”, the “decrease in U-87 MG cell number” value [2] is given as 20% and the “decrease in U-87 MG cell number” value ([2]; listed as docetaxel) is given as “approximately 20%”. For the same molecule, the “Annexin V positive cells” value [3] was “significant increase”, the “DNA Frag (+) Apoptotic bodies (upper left quadrant)” value [4] was 0.10 ± 0.0% and the “DNA Frag (+) Cells (upper right quadrant)” value [4] was 2.11 ± 1.69%. For the same molecule, the “DNA Frag (−) Apoptotic bodies (lower left quadrant)” value [4] was 3.57 ± 1.65%, the “DNA Frag (−) Cells (lower right quadrant)” value [4] was 94.2 ± 0.07% and the caspase-3/7 activation [5] was “significant increase”. For the same molecule, the G1 [6] was 39.7 ± 4.8*, the G2/M [6] was 22.1 ± 4.4 and the S [6] was 26.7 ± 1.7*. The Sub-G0 [6] was 9.9 ± 3.9*.
